Measured values: patent US8299089B2, “Multi-arm polymeric conjugates of 7-ethyl-10-hydroxycamptothecin for treatment of breast, colorectal, pancreatic, ovarian and lung cancers” (priority 2006, dated 2012)

Experiments:
PANC-1 = assay: In vitro cytotoxicity, MTS assay, PANC-1; type: cell-based; settings: Table 2; PANC-1, 72 hours; Compound 9 in 7-ethyl-10-hydroxycamptothecin equivalents; average ± SD (n = 3)
Experimental: (§1) In Table 2, the cytotoxicity (μM of each compound that results in an IC50) provides an indication of the in vitro anti-tumor potency of each compound. This study was used to determine the effect of PEGylation of four-arm PEGylated 7-ethyl-10-hydroxycamptothecin conjugates. […] Cells were incubated with drugs for 72 hours at 37° C. Following incubation, MTS dye was added and formation of a colored product (formazan) was measured at 490 nm.

MIA PaCa-2 = assay: In vitro cytotoxicity, MTS assay, MIA PaCa-2; type: cell-based; settings: Table 2; MIA PaCa-2, 72 hours; Compound 9 in 7-ethyl-10-hydroxycamptothecin equivalents; no SD = average of two replicates
Experimental: as §1

HT29 = assay: In vitro cytotoxicity, MTS assay, HT29; type: cell-based
Experimental: as §1

A2780 = assay: In vitro cytotoxicity, MTS assay, A2780; type: cell-based; settings: Table 2; A2780, 72 hours; Compound 9 in 7-ethyl-10-hydroxycamptothecin equivalents; average ± SD (n = 3)
Experimental: as §1

ASPC-1 = assay: In vitro cytotoxicity, MTS assay, ASPC-1; type: cell-based; settings: Table 2; ASPC-1, 72 hours; Compound 9 in 7-ethyl-10-hydroxycamptothecin equivalents; average ± SD (n = 3)
Experimental: as §1

[1] = Solubility in aqueous saline solution; type: physicochemical
OVCAR-8 = assay: In vitro cytotoxicity, MTS assay, OVCAR-8; type: cell-based; settings: Table 2; OVCAR-8, 72 hours; Compound 9 in 7-ethyl-10-hydroxycamptothecin equivalents; average ± SD (n = 3)
Experimental: as §1

A549 = assay: In vitro cytotoxicity, MTS assay, A549; type: cell-based
Experimental: as §1

Colo 205 = assay: In vitro cytotoxicity, MTS assay, Colo 205; type: cell-based
Experimental: as §1

SK-0V-3 = assay: In vitro cytotoxicity, MTS assay, SK-0V-3; type: cell-based; settings: Table 2; SK-0V-3, 72 hours; Compound 9 in 7-ethyl-10-hydroxycamptothecin equivalents; average ± SD (n = 3)
Experimental: as §1

BxPC-3 = assay: In vitro cytotoxicity, MTS assay, BxPC-3; type: cell-based; settings: Table 2; BxPC-3, 72 hours; Compound 9 in 7-ethyl-10-hydroxycamptothecin equivalents; average ± SD (n = 3)
Experimental: as §1

OV90 = assay: In vitro cytotoxicity, MTS assay, OV90; type: cell-based; settings: Table 2; OV90, 72 hours; Compound 9 in 7-ethyl-10-hydroxycamptothecin equivalents; average ± SD (n = 3)
Experimental: as §1

OVCAR-3 = assay: In vitro cytotoxicity, MTS assay, OVCAR-3; type: cell-based
Experimental: as §1

[2] = tested on: human mammary carcinoma (MX-1); assay: Multiple dose efficacy in MX-1 breast tumor xenograft mouse model; type: in vivo, nude mice; settings: i.v. 5 mg/kg/dose (q2d×6), day 31
Experimental: The mice were dosed 5 mg/kg/day […] (every 2 days [q×2d]×6). Mouse weight and tumor sizes were monitored up to the 31st day after the first dose administration and subsequent administrations.

[3] = 7-ethyl-10-hydroxycamptothecin release in rat plasma; type: in vitro ADME; settings: 7-ethyl-10-hydroxycamptothecin formation rate from conjugates
[4] = 7-ethyl-10-hydroxycamptothecin release in mouse plasma; type: in vitro ADME; settings: 7-ethyl-10-hydroxycamptothecin formation rate from conjugates
[5] = Hydrolysis / 7-ethyl-10-hydroxycamptothecin release in human plasma; type: in vitro ADME; settings: for Doubling Time in Plasma, Human: 7-ethyl-10-hydroxycamptothecin formation rate from conjugates; for t1/2 in Human Plasma: PEG conjugate half life
Description: The aqueous stability and hydrolysis properties in rat and human plasma were monitored using UV based HPLC methods.

CCc1c2c(nc3ccc(O)cc13)-c1cc3c(c(=O)n1C2)COC(=O)[C@]3(O)CC [7-ethyl-10-hydroxycamptothecin]
IC50 (PANC-1): 560 ± 380 nM
IC50 (MIA PaCa-2): 180 nM
IC50 (HT29; Table 2, HT29, 72 hours, Compound 9 in 7-ethyl-10-hydroxycamptothecin equivalents, average ± SD (n = 3)): 100 ± 40 nM
IC50 (HT29; Table 3, HT29 (colorectal)): 80 nM
IC50 (A2780): 20 ± 10 nM
IC50 (ASPC-1): 640 ± 130 nM
Solubility in Saline [1]: ^a7-ethyl-10-hydroxycamptothecin is not soluble in saline.
IC50 (OVCAR-8): 30 ± 10 nM
IC50 (A549; Table 2, A549, 72 hours, Compound 9 in 7-ethyl-10-hydroxycamptothecin equivalents, average ± SD (n = 3)): 1000 ± 100 nM
IC50 (Colo 205; Table 2, Colo 205, 72 hours, Compound 9 in 7-ethyl-10-hydroxycamptothecin equivalents, average ± SD (n = 3)): 200 ± 200 nM
IC50 (Colo 205; Table 3, Colo 205 (colorectal)): 80 nM
IC50 (SK-0V-3): 200 ± 100 nM
IC50 (BxPC-3): 540 ± 580 nM
IC50 (OV90): 100 ± 20 nM
IC50 (OVCAR-3; Table 2, OVCAR-3, 72 hours, Compound 9 in 7-ethyl-10-hydroxycamptothecin equivalents, average ± SD (n = 3)): 100 ± 20 nM

^40K4arm-PEG-Sar-(20)-(7-ethyl-10-hydroxycamptothecin) [Compound 23]
IC50 (HT29; Table 3, HT29 (colorectal)): 270 nM
IC50 (A549; Table 3, A549 (lung)): 11000 nM
IC50 (Colo 205; Table 3, Colo 205 (colorectal)): 40 nM
Chg in TV ± SD [2]: −87 ± 12%
Cures [2]: 100%
F/I [2]: 13%
Mean TV ± SD [2]: 12 ± 10 mm^3
Median TV [2]: 14.6 mm^3
Regressions [2]: 100%
Survival [2]: 100%
T/C [2]: 1.9%
TGI [2]: 99%
Doubling Time in Plasma, Rat [3]: 481 min
IC50 (OVCAR-3; Table 3, OVCAR-3 (ovarian)): 170 nM
Doubling Time in Plasma, Mouse [4]: 43.4 min
Doubling Time in Plasma, Human [5]: 28.8 min
t1/2 in Human Plasma [5]: 19.0 min

^40k4arm-PEG-Ala-(20)-(7-ethyl-10-hydroxycamptothecin) [Compound 12]
IC50 (HT29; Table 3, HT29 (colorectal)): 160 nM
Solubility in Saline [1]: 121 mg/mL
IC50 (A549; Table 3, A549 (lung)): 4400 nM
IC50 (Colo 205; Table 3, Colo 205 (colorectal)): 30 nM
Chg in TV ± SD [2]: −91 ± 11%
Cures [2]: 67%
F/I [2]: 10%
Mean TV ± SD [2]: 10 ± 11 mm^3
Median TV [2]: 9.6 mm^3
Regressions [2]: 100%
Survival [2]: 100%
T/C [2]: 1.2%
TGI [2]: 99%
Doubling Time in Plasma, Rat [3]: 753 min
IC50 (OVCAR-3; Table 3, OVCAR-3 (ovarian)): 140 nM
Doubling Time in Plasma, Mouse [4]: 45.8 min
Doubling Time in Plasma, Human [5]: 51.9 min
t1/2 in Human Plasma [5]: 12.5 min

^40k4arm-PEG-Met-(20)-(7-ethyl-10-hydroxycamptothecin) [Compound 18]
IC50 (HT29; Table 3, HT29 (colorectal)): 140 nM
Solubility in Saline [1]: 142 mg/mL
IC50 (A549; Table 3, A549 (lung)): 1600 nM
IC50 (Colo 205; Table 3, Colo 205 (colorectal)): 30 nM
Chg in TV ± SD [2]: −94 ± 7%
Cures [2]: 100%
F/I [2]: 7.8%
Mean TV ± SD [2]: 8 ± 9 mm^3
Median TV [2]: 5.6 mm^3
Regressions [2]: 100%
Survival [2]: 100%
T/C [2]: 0.7%
TGI [2]: 99%
Doubling Time in Plasma, Rat [3]: 1920 min
IC50 (OVCAR-3; Table 3, OVCAR-3 (ovarian)): 130 nM
Doubling Time in Plasma, Mouse [4]: 41.9 min
Doubling Time in Plasma, Human [5]: 22.2 min
t1/2 in Human Plasma [5]: 26.8 min
